Measurements: patent US12070505B2, “Targeted peptide-drug conjugates” (priority 2021, dated 2024)

Assays:
MCF-7 cells = experiment: MTS cytotoxicity assay of [(WR)8WKβA]-Dox, MCF-7; type: cell-based; conditions: 5 μM
Procedure: Cytotoxic activity of the synthesized conjugate and noncovalent mixtures of cyclic [WR]9+Dox was determined in SK-OV-3, MDA-MB-231, MCF-7, MES-SA/MX2, and H9C2 cells. […] An appropriate growth medium was used for each cell line (for SK-OV-3: McCoy's […] with L-glutamine containing fetal bovine serum (FBS) (10%) and penicillin or streptomycin (1%); for MDA-MB-231 and MCF-7 cells: DMEM/F12 (1:1) (1×) with L-Glutamine and 15 mM HEPES containing FBS (10%) and penicillin or streptomycin (1%), and for MES-SA/MX2 and H9C2 cells: Minimum Essential Medium Eagle with Earle's salts and sodium bicarbonate, without L-glutamine containing FBS (10%), and penicillin or streptomycin (1%)). The cells were seeded in a complete growth medium 24 h prior to the experiment. […] The incubation was continued for 3 h.

H9C2 cells [1] = experiment: Fluorescence/confocal microscopy uptake in heart cells (Example 1); type: cell-based, rat; conditions: 5 μM
Procedure: Fluorescence and Confocal Microscopy. CCRF-CEM, SKOV-3, and H9C2 cells were seeded with EMEM media overnight on coverslips in six-well plates. Then the medium was removed and washed with opti-MEM. The cells were treated with Dox and the peptide-Dox conjugate (5 μM) in opti-MEM for different time intervals (3, 24, and 72 h) at 37° C. After 3 h incubation, the media containing the compound were removed, followed by washing with PBS three times. Then coverslips were placed on a drop of mounting medium on a microscope slide with the cell-attached side facing down. Fluorescence microscopy and laser scanning confocal microscopy were carried out using a Keyence Microscope System and Nikon AIR system, respectively. The cells were imaged using rhodamine and phase contrast channels.
In a separate experiment, confocal microscopy was used as follows. (i) Internalization of [R5K]W7A-Dox conjugate vs. free Dox was determined in Dox-resistant MDA-MB-231 and ME5-SA/MX2 cells as compared to the wild-type MDA-MB-231 cells. The cellular internalization was evaluated in Dox-sensitive and -resistant cells to study the effect of overexpression of the MDR efflux proteins on the Dox internalization by the peptide conjugates. […] (ii) Internalization of Dox and [R5K]W7A-Dox was determined into normal heart muscle cells. […]

H9C2 cells [2] = experiment: Confocal microscopy uptake in H9C2 (Example 2); type: cell-based, rat; conditions: 5 μM, 24 h
Procedure: Confocal Microscopy. MDA-MB-231, SK-OV-3, MES-SA/MX2, and H9C2 cells (7×10^4 cells/well) were seeded with a medium on a coverslip 24 h prior to the experiment in six well plates. After 24 h, the medium was changed with opti-MEM. The cells were treated with Dox and peptide-Dox conjugate (5 μM) in opti-MEM for 24 h. After 24 h incubation, the media were removed, and cells were washed three times with PBS in each well. Then, the cells were fixed with 3.7% formaldehyde for 10 min, followed by washing three times with PBS (pH 7.6) for 5 min. DAPI (40 μL) for staining the nuclei was placed on a microscope slide, and it was covered with the coverslip with the cell-attached side facing down. The slides were left standing horizontally in a dark place with airflow to allow faster drying. The cells were photographed using Nikon Instruments A1 Confocal Laser Microscope Series and NIS-Elements software (AR 4.30.02, 64 bit). The scan mode was selected as Galvano. The magnification and resolution were set at 40× and 1024, respectively.

[3] = test system: gastric adenocarcinoma cells (AGS); experiment: Cytotoxicity, MTS cell viability assay, AGS; conditions: 5 μM
Procedure: In Vitro Cytotoxicity Assay of Peptide-Drug Conjugates. […] In brief, CCRF-CEM cells were seeded at 50,000 cells in 0.1 mL per well in 98-well plates. In the case of other cell lines, the cells were seeded at 5,000 cells (0.1 mL per well in 96-well plates). […] Dox (5 μM) was used as a positive control, while water and cell culture medium were used as negative controls. The compounds were dissolved in water; water was used as a negative control to normalize the data. After the incubation period, MTS reagent (20 μL) was added to each well. The incubation was continued for 2 h. Cell viability was then determined by determination of the fluorescence intensity at 490 nm using a SpectraMax M2 microplate spectrophotometer. The percentage of cell viability was then calculated using the following equation: [(OD value of cells treated with the compound)−(OD value of culture medium)]/[(OD value of control cells)−(OD value of culture medium)]×100% (FIGS. 6-9).

COc1cccc2c1C(=O)c1c(O)c3c(c(O)c1C2=O)C[C@@](O)(C(=O)CO)C[C@@H]3O[C@H]1C[C@H](N)[C@H](O)[C@H](C)O1 [Dox, doxorubicin, reference compound]
reduction of cell proliferation (MCF-7 cells; 24 h): 21%
reduction of cell proliferation (MCF-7 cells; 72 h): 57%
uptake in heart cells (microscopy, words) (H9C2 cells [1]): significant uptake
uptake in heart cells (confocal microscopy, words) (H9C2 cells [2]): high uptake
Cell Viability (%) after 24 h [3]: 54 ± 2%
Cell Viability (%) after 72 h [3]: 13 ± 3%
reduction of cell survival ([3]; 24 h): 46%
reduction of cell survival/viability ([3]; 72 h): 87%
